Test results as given in patent US20210393662A1, “USE OF SGLT2 INHIBITORS TO TREAT PRIMARY SCLEROSING CHOLANGITIS” (AVOLYNT, priority 2018, published 2021).
“Also recorded” adds a separate entry of the source.

Assays:
[1] = test system: TIA mice; assay: TIA murine model of PSC, liver histology and survival after 7 weeks on 0.03% remogliflozin etabonate diet; type: in vivo, mouse; settings: for periportal and biliary inflammation / proliferation of bile ductules: 0.03% in chow from 4 weeks of age
From the text: The following Examples describe the utilization of a murine model of […] (“PSC”) to assess the effectiveness of a treatment regimen based on the oral administration of remogliflozin etabonate. The murine PSC model is based on mice that are deficient for the expression of tumor necrosis factor alpha (“TNFα”), interleukin 10 (“IL-10”), and activation-induced cytidine deaminase (“AICDA”). As the mice are deficient in TNF, IL-10, and AICDA, they are referred to, herein, as “TIA” mice.
Moreover, as AICDA is required for immunoglobulin (“Ig”) class switching, TIA mice lack IgG and IgA, a phenotype analogous to humans with hyper-IgM syndrome. Therefore, with the combination of AICDA deficiency with the risk factors associated with TNFα and IL-10 deficiencies, TIA mice also develop liver and biliary inflammation reminiscent of PSC symptoms in humans. Accordingly, the TIA model is useful for investigating mechanisms that act early in PSC pathogenesis, as well as treatments that can prevent progression to PSC.
Example 1. Orally-administered remogliflozin etabonate reduces inflammatory cell infiltration, bile ductular proliferation, and interface hepatitis in TIA mice. TIA mice were created by first breeding TNFα knock out (“KO”) C57BL/6 mice, (strain B6.129S-Tnf^tm1Gkl/J, stock #005540, Jackson Laboratories, Bar Harbor, Me.) with IL-10 KO mice (strain B10.129P2(B6)-IL10^tm1Cgn/J, Stock No. 002251, Jackson Laboratories) to produce a population of mice that were deficient in TNFα and IL-10. Because mice with a TNFα−/− and IL10−/− genotype spontaneously develop inflammatory bowel disease (“IBD”) (Hale 2012), a condition associated with poor breeding success (Nagy 2016), the mice needed for further breeding to generate an AICDA population, were generated by breeding offspring with a TNFα−/− and IL10+/− genotype with AICDA−/− mice, which were obtained from Dr. Tasuku Honjo (Muramatsu 2000)), to produce a population of TNFα−/−, IL10−/−, and AICDA+/−(“TI-hetA”) males and females. In turn, TI-hetA pairs were bred to generate populations that were 25% TIA mice, and 50% non-colitis-susceptible TI-hetA littermates that could be used as control populations. All populations were exposed to the same environment from birth. The mice were housed in polycarbonate micro-isolator cages, in individually ventilated racks, under barrier conditions that excluded all known pathogens, including Helicobacter pylori and Norovirus. Mice had ad libitum access to water, and to a standard diet (PicoLab Mouse Diet 20/5058, LabDiet, St. Louis, Mo., USA).
At four (4) weeks of age, TIA (40) and TI-hetA (22) mice were randomized into experimental groups that received either a standard diet (20 TIA and 12 het), or a standard diet formulated 0.03% remogliflozin etabonate (20 TIA and 10 het) (Avolynt Inc., USA). The mice were maintained on this diet for seven (7) weeks. Body weights were obtained three (3) times, weekly, to assess the general health of mice, and to track the development of inflammatory bowel disease (IBD). Glycosuria in the experimental groups was assessed by applying freshly voided urine directly to the glucose test patch on an Accutest® URS-10 urinary reagent test strips (Jant Pharmaceutical Corp., Encino, Calif., USA). Mice were humanely euthanized before reaching the experimental endpoint, of eleven (11) weeks of age, if they lost>15% body weight, or developed rectal prolapse.
To characterize biliary lesions in TIA mice at the end of the 7 week treatment period, liver tissue was obtained from the remogliflozin-treated, and untreated groups, for histologic examination. The excised liver tissue was fixed in Carnoy's fixative solution, and processed into paraffin blocks. The paraffin blocks were sectioned, and stained with Hematoxylin and eosin (H&E) for pathologic analysis. The H&E-stained sections were scored by an American Board of Pathology-certified pathologist. […]

[2] = Plasma pharmacokinetics after oral compressed IR tablet; type: in vivo
From the text: Oral dosage forms according to the invention are typically tablets or capsules. Tablets can be obtained by direct compression of the mixed components of a dosage form, including an effective dosage amount of remogliflozin etabonate, and selected excipients, like cellulose derivatives, metacrylates, chitosan, carboxymethylstarch, or mixtures thereof. For example, a compressed tablet according to the invention, can be prepared by granulating a SGLT2 inhibitor with microcrystalline cellulose and croscarmellose sodium with a water and povidone solution. The resulting granules are dried, milled, and then blended with mannitol, microcrystalline cellulose, and croscarmellose. The blend is lubricated with magnesium stearate and compressed. […] Indeed, Tmax for an IR remogliflozin etabonate oral dosage form according to the invention occurs at 1 hour, or less, following ingestion of the dosage form by a subject.

[3] = TIA mice, H&E liver sections at 11 weeks, vs untreated
[4] = TIA mice, H&E liver sections at 11 weeks, vs untreated, listed as Remo

CCOC(=O)OC[C@H]1O[C@@H](Oc2nn(C(C)C)c(C)c2Cc2ccc(OC(C)C)cc2)[C@H](O)[C@@H](O)[C@@H]1O [remogliflozin etabonate]
number of TIA mice that required early euthanasia ([1]; Remo group versus control group): no statistical difference | early death ([1]; Remo group versus control group, not statistically significant): trend toward decreased early death | periportal and biliary inflammation [1, 3]: less inflammation | proliferation of bile ductules [1, 3]: reduces; also recorded: less proliferation | periportal and biliary inflammation [1, 4]: decrease | proliferation of bile ductules [1, 4]: decrease | inflammation at the interface between hepatic parenchyma and portal tracts (interface hepatitis) ([1]; TIA mice, 0.03% in diet for 7 weeks, H&E liver sections at 11 weeks, vs untreated): reduces; also recorded: less inflammation | development and progression of liver and biliary disease (PSC disease pathology) ([1]; TIA mice, 0.03% in diet for 7 weeks, vs standard diet): markedly less development and progression; also recorded: prevents the progression | inflammatory cell infiltration ([1]; TIA mice, orally administered): reduces | Tmax ([2]; IR remogliflozin etabonate oral dosage form, following ingestion): ≤ 1 h | remogliflozin plasma concentration (plasma clearance to) ([2]; compressed IR tablet, 350 mg remogliflozin etabonate, oral, after 3 hrs): 40 ng/mL | maximum remogliflozin plasma concentration (Cmax) ([2]; compressed IR tablet, 350 mg remogliflozin etabonate, oral, at 1 hr post-ingestion): 160 ng/mL
